“And” between values parts separate entries of the source, which are not always exact repeats. Identical values can stand only once.
What was measured:
[1] = instrument: DT, stepped-field
[2] = instrument: TW, calibrated with phosphatidylcholines (ESI+) and phosphatidylethanolamines (ESI-)
[3] = instrument: DT, single field, calibrated with Agilent tune mix (Agilent)
[4] = [M+Na]+; instrument: DT; stepped-field
[5] = instrument: DT, single field
[6] = [M-H]-; instrument: TW; calibrated with phosphatidylcholines (ESI+) and phosphatidylethanolamines (ESI-)

Question: Which results are given for `CCCCCC/C=C\CCCCCCCC(=O)OC[C@H](COP(=O)(O)OCCN)OC(=O)CCCCCCCCC/C=C\CCCCCCCCCC` [PE(38:2)]?
Answer: collision cross section (N2) ([1]; [M+H]+): 298.6 Å²; collision cross section (N2) ([2]; [M-H]-): 274.1 Å²; collision cross section (N2) ([3]; [M+H]+): 285.1 Å²

Question: With `CCCCC/C=C\C/C=C\CCCCCCCCCCCC(=O)O[C@H](COC(=O)CCCCCCC/C=C\CCCCCC)COP(=O)(O)OCCN` [PE(38:3)] as the compound, how does the “collision cross section (N2)” value [4] read?
Answer: 289.3 Å²

Question: And the “collision cross section (N2)” value ([1]; [M+H]+)?
Answer: 297.1 Å²

Question: And the “collision cross section (N2)” value ([2]; [M-H]-)?
Answer: 271.7 Å²

Question: What about the “collision cross section (N2)” value ([3]; [M-H]-) of the same compound?
Answer: 273.3 Å²

Question: What does the source list for `CCCCC/C=C\C/C=C\C/C=C\C/C=C\CCCCCC(=O)O[C@H](COC(=O)CCCCCCC/C=C\C/C=C\CCCCC)COP(=O)(O)OC[C@H](N)C(=O)O` [PS(40:6)]?
Answer: collision cross section (N2) ([1]; [M-H]-): 295.4 Å²; collision cross section (N2) ([2]; [M-H]-): 284.6 Å²; collision cross section (N2) ([3]; [M+H]+): 289.6 Å²; collision cross section (N2) ([3]; [M+Na]+): 293.9 Å²; collision cross section (N2) ([3]; [M-H]-): 284.9 Å²

Question: Which “collision cross section (N2)” value ([1]; [M-H]-) does the source give for `CCCCCCCCCCCCCCCCCC(=O)O[C@H](CO)COP(=O)(O)O` [LPA(18:0)] here?
Answer: 206.2 Å²

Question: Which “collision cross section (N2)” value ([5]; [M+H]+) does the source give for `CCCCCCCC/C=C\CCCCCCCCCCCC(=O)OC[C@H](COP(=O)([O-])OCC[N+](C)(C)C)OC(=O)CCCCCCCCCCCCC` [PC(36:1)] here?
Answer: 292.57 Å²

Question: And the “collision cross section (N2)” value ([5]; [M+Na]+)?
Answer: 294 Å²

Question: And the “collision cross section (N2)” value ([1]; [M+H]+)?
Answer: 306.2 Å²

Question: What about the “collision cross section (N2)” value ([2]; [M+CH3COO]-) of the same compound?
Answer: 294.5 Å²

Question: What about the “collision cross section (N2)” value ([2]; [M+H]+) of the same compound?
Answer: 291.6 Å²

Question: And the “collision cross section (N2)” value ([3]; [M+HCOO]-)?
Answer: 292.3 Å²

Question: And the “collision cross section (N2)” value ([3]; [M+H]+)?
Answer: 293.9 Å²

Question: And the “collision cross section (N2)” value ([3]; [M+Na]+)?
Answer: 297.1 Å²

Question: Which “collision cross section (N2)” value ([1]; [M+H]+) does the source give for `CCCCCCC/C=C\CCCCCCCC(=O)O[C@H](COC(=O)CCCCCCCCCCCC)COP(=O)([O-])OCC[N+](C)(C)C` [PC(14:0/16:1)] here?
Answer: 283.6 Å²

Question: With `CCCCCC/C=C\CCCCCCCC(=O)OC[C@H](COP(=O)(O)OC[C@H](N)C(=O)O)OC(=O)CCCCCCCCC/C=C\CCCCCCCCCC` [PS(38:2)] as the compound, how does the “collision cross section (N2)” value ([1]; [M-H]-) read?
Answer: 294.3 Å²

Question: What does the source list for `CCCCCCCCCCCCCCCCC(=O)O[C@H](COC(=O)CCCCCCCCCCCCCC)COP(=O)(O)OC[C@@H](O)CO` [PG(32:0)]?
Answer: collision cross section (N2) ([1]; [M-H]-): 270.3 Å²; collision cross section (N2) ([2]; [M+Na]+): 277.3 Å²; collision cross section (N2) ([2]; [M-H]-): 263.5 Å²; collision cross section (N2) ([3]; [M-H]-): 265.1 Å²

Question: With `CCCCC/C=C\C/C=C\CCCCCCCCCCCC(=O)O[C@H](COC(=O)CCCCCCCCCCC)COP(=O)(O)O` [PA(16:1/18:1)] as the compound, how does the “collision cross section (N2)” value ([1]; [M-H]-) read?
Answer: 257 Å²

Question: Which results are given for `CCCC/C=C\C/C=C\CCCCCCCC(=O)O[C@H](COC(=O)CCCCCCC/C=C\CCCCCCCCC)COP(=O)(O)O[C@H]1C(O)C(O)C(O)[C@@H](O)C1O` (stereo not given in full) [PI(36:3)]?
Answer: collision cross section (N2) ([1]; [M-H]-): 296.3 Å²; collision cross section (N2) ([2]; [M+Na]+): 291.1 Å²; collision cross section (N2) ([2]; [M-H]-): 287.2 Å²; collision cross section (N2) ([3]; [M+H]+): 296.4 Å²; collision cross section (N2) ([3]; [M+NH4]+): 297.4 Å²; collision cross section (N2) ([3]; [M+Na]+): 295.5 Å²

Question: Which results are given for `CCCCCCCCCCCCCCCCCCCC(=O)O[C@H](COC(=O)CCCCCCCCCCC)COP(=O)([O-])OCC[N+](C)(C)C` [PC(32:0)]?
Answer: collision cross section (N2) ([5]; [M+H]+): 282.65 Å² and 284.23 Å²; collision cross section (N2) ([2]; [M+H]+): 281 Å²; collision cross section (N2) ([3]; [M+H]+): 283.4 Å²

Question: Which “collision cross section (N2)” value ([1]; [M+H]+) does the source give for `CCCCC/C=C\C/C=C\C/C=C\CCCCC(=O)O[C@H](COCCCCCCCCCCCCCCCC)COP(=O)([O-])OCC[N+](C)(C)C` [PC(o34:3)] here?
Answer: 294 Å²

Question: Which “collision cross section (N2)” value ([1]; [M-H]-) does the source give for `CCCCC/C=C\C/C=C\CCCCCCCCCC(=O)O[C@H](COC(=O)CCCCCCCCCCCCCC)COP(=O)(O)OC[C@@H](O)CO` [PG(35:2)] here?
Answer: 278.7 Å²

Question: What about the “collision cross section (N2)” value [6] of the same compound?
Answer: 271.4 Å²

Question: Which results are given for `CCCCC/C=C\C/C=C\C/C=C\CCCCC(=O)O[C@H](COCCCCCCCCCCCCCCCCCC)COP(=O)(O)OCCN` [PE(o36:3)]?
Answer: collision cross section (N2) [4]: 285.4 Å²; collision cross section (N2) ([1]; [M+H]+): 290.1 Å²; collision cross section (N2) ([1]; [M-H]-): 273.1 Å²

Question: With `CCCCCCCCCCCCCCCCCC(=O)OC[C@@H](O)COP(=O)(O)OC[C@@H](O)CO` [LPG(18:0)] as the compound, how does the “collision cross section (N2)” value ([1]; [M-H]-) read?
Answer: 221.9 Å²

Question: For `CCCCC/C=C\C/C=C\CCCCCCCCCCCC(=O)O[C@H](COC(=O)CCCCCCCCCCC)COP(=O)(O)OC[C@@H](O)CO` [PG(16:1/18:1)], which “collision cross section (N2)” value ([1]; [M-H]-) is on record?
Answer: 274 Å² and 273.8 Å² and 274.3 Å²

Reference: the C3SDB collision cross section collection
